According to PMC12750888, “Design, synthesis, and anti-Toxoplasma gondii evaluation of β-carboline derivatives” (Parasites & Vectors, 2025):

Legend:
[1] = test system: T. gondii RH strain tachyzoites; assay: In vitro anti-invasion assay (qPCR; RH-GFP fluorescence microscopy); type: cell-based, Toxoplasma gondii; conditions: 0.4 μM, RH strain, qPCR
Protocol: Vero cells were seeded onto 6-well plates and cultured with DMEM supplemented with 10% FBS to obtain cell monolayers. The medium was replaced with fresh DMEM (1% FBS) containing NBZ023 or NBZ035 (0.24–30 μM), pyrimethamine (0.4 μM) or no drugs (as a control), and tachyzoites (2 × 10^6 per well) were then inoculated into the confluent Vero cell monolayers. At 2 h after infection, the cell monolayers were washed twice with PBS to remove extracellular tachyzoites and then total genomic DNA from the cell samples was isolated with the DNAiso reagent (Takara). The anti-invasion capabilities of NBZ023 and NBZ035 were determined by qPCR. The T. gondii RH strain with green fluorescence was seeded as described above. After infection, the cells were incubated for 36 h to fully observe the infection status of the parasites via fluorescence microscopy.

Vero cells = assay: Cell viability assay (CCK-8) on Vero cells; type: cell-based, African green monkey; conditions: 24 h; for Cytotoxicity: CCK-8, tested up to 30 µM; for inhibition at 30 µM: Chlorocebus sabaeus, CCK-8, read-out: Inhibition rate of Vero cell at 30 μM
Protocol: African green monkey kidney (Vero) cells were cultured in Dulbecco’s modified Eagle’s medium (DMEM) supplemented with 100 U/mL penicillin, 100 μg/mL streptomycin, 1% nonessential amino acids (NEAAs), 1% GlutaMAX and 10% fetal bovine serum (FBS) at 37 °C in an atmosphere of 5% CO2. […] DMEM without a drug was used as a control. After 24 h of treatment, Cell Counting Kit-8 (CCK-8, CA1210, Solarbio) was used to determine cell viability at 450 nm via a Multiskan GO instrument.

T. gondii RH tachyzoites = assay: Screening for anti-T. gondii activity in vitro (plaque and qPCR assays); type: cell-based, Toxoplasma gondii; conditions: for inhibition of growth at 30 µM: Toxoplasma gondii, Vero, 24 h, RH tachyzoites in Vero cells, plaque and qPCR assays
Protocol: The anti-T. gondii activity of compounds NBZ001‒037 was examined via RT-PCR. Confluent Vero cells in 6-well plates were infected with 2 × 10^5 T. gondii RH tachyzoites per well, incubated for 6 h, and then washed twice with PBS to remove extracellular tachyzoites. The cell monolayers were incubated with DMEM (1% FBS) containing various concentrations of NBZ001‒037 for 24 h. Total genomic DNA from each sample was isolated with the DNAiso reagent (Takara), and the levels of the 529-bp repeat element of T. gondii were measured by qPCR. A plaque assay was used to evaluate the activity of the compounds. The detailed experimental procedures were described in previous studies.

Row | SMILES | anti-invasion rate [1] | Cytotoxicity (Vero cells) | inhibition at 30 µM (Vero cells) | inhibition of growth at 30 µM (T. gondii RH tachyzoites) | improved efficacy over NBZ022 (T. gondii RH tachyzoites; 30 μM screening, ortho-Cl versus NBZ022)
1 | CCc1nc(N)nc(N)c1-c1ccc(Cl)cc1 [pyrimethamine, reference compound] | 26.77% | – | – | – | –
2 | Cc1ccc2[nH]c3c(C(=O)c4ccccc4Cl)nccc3c2c1 [NBZ004] | – | > 30.00 µM | 5.35% | 43.8% | –
3 | COc1ccccc1NC(=O)c1ccc2[nH]c3c(C(=O)c4ccccc4Cl)nccc3c2c1 [NBZ027, (2-Chlorobenzoyl)-N-(2-methoxyphenyl)-9H-pyrido[3,4-b]indole-6-carboxamide] | – | > 30.00 µM | 27.9% | – | –
4 | Cc1ccc2[nH]c3c(C(=O)c4ccc(Br)cc4)nccc3c2c1 [NBZ007] | – | > 30.00 µM | 13.5% | 31.2% | –
5 | CN(C)c1ccc(NC(=O)c2ccc3[nH]c4c(C(=O)c5ccccc5Br)nccc4c3c2)cc1 [NBZ033] | – | > 30.00 µM | 11.2% | 14.3% | –
6 | CN(C)c1ccc(NC(=O)c2ccc3[nH]c4c(C(=O)c5ccccc5Cl)nccc4c3c2)cc1 [NBZ032] | – | > 30.00 µM | 16% | 73% | –
7 | O=C(NCc1ccco1)c1ccc2[nH]c3c(C(=O)c4ccccc4Br)nccc3c2c1 [NBZ017] | – | > 30.00 µM | 10.8% | 43.4% | –
8 | Cc1ccccc1NC(=O)c1ccc2[nH]c3c(C(=O)c4ccccc4Br)nccc3c2c1 [NBZ024] | – | > 30.00 µM | 24.4% | 3.45% | –
9 | O=C(O)c1ccc2[nH]c3c(C(=O)c4ccc(Br)cc4)nccc3c2c1 [NBZ011] | – | > 30.00 µM | 3.88% | > 50% | –
10 | O=C(Nc1cccc2ccccc12)c1ccc2[nH]c3c(C(=O)c4ccccc4Br)nccc3c2c1 [NBZ020] | – | > 30.00 µM | 8.15% | 7.22% | –
11 | Cc1ccc(NC(=O)c2ccc3[nH]c4c(C(=O)c5ccccc5Br)nccc4c3c2)cc1 [NBZ026] | – | > 30.00 µM | 23.6% | 21.1% | –
12 | O=C(Nc1ccccc1)c1ccc2[nH]c3c(C(=O)c4ccccc4Br)nccc3c2c1 [NBZ022] | – | > 30.00 µM | 46.8% | 17.4% | –
13 | O=C(c1ccccc1Br)c1nccc2c1[nH]c1ccc(Br)cc12 [NBZ003] | – | > 30.00 µM | 21.8% | 40.8% | –
14 | CC(=O)OC[C@H]1O[C@@H](OC(C)=O)[C@H](NC(=O)c2ccc3[nH]c4c(C(=O)c5ccccc5Br)nccc4c3c2)[C@@H](OC(C)=O)[C@@H]1OC(C)=O [NBZ019] | – | > 30.00 µM | 9.56% | 35.9% | –
15 | CN(C)c1cccc(NC(=O)c2ccc3[nH]c4c(C(=O)c5ccccc5Cl)nccc4c3c2)c1 [NBZ030] | – | > 30.00 µM | 12.8% | 69.2% | –
16 | COc1ccc(NC(=O)c2ccc3[nH]c4c(C(=O)c5ccccc5Br)nccc4c3c2)cc1 [NBZ029] | – | > 30.00 µM | 27.9% | 30.3% | –
17 | O=C(Nc1ccccc1)c1ccc2[nH]c3c(C(=O)c4ccccc4Cl)nccc3c2c1 [NBZ021] | – | > 30.00 µM | 11.4% | > 50% | 66.21%
18 | Cc1ccc(NC(=O)c2ccc3[nH]c4c5[n+](ccc4c3c2)-c2ccccc2C5=O)cc1.[Cl-] [NBZ037, 13-oxo-9-(p-tolylcarbamoyl)-12,13-dihydropyrido[1,2-a:3,4-b’]diindol-5-ium chloride] | – | > 30.00 µM | 29.7% | – | –

Row | SMILES | anti-invasion rate [1] | Cytotoxicity (Vero cells) | inhibition at 30 µM (Vero cells) | inhibition of growth at 30 µM (T. gondii RH tachyzoites) | improved efficacy over NBZ022 (T. gondii RH tachyzoites; 30 μM screening, ortho-Cl versus NBZ022)
19 | Cc1ccc(NC(=O)c2ccc3[nH]c4c(C(=O)c5ccccc5Cl)nccc4c3c2)cc1 [NBZ025] | – | > 30.00 µM | 3.96% | 32.6% | –
20 | O=C(O)c1ccc2[nH]c3c(C(=O)c4ccccc4Br)nccc3c2c1 [NBZ010] | – | > 30.00 µM | 16.6% | 45.2% | –
21 | O=C(c1ccccc1Cl)c1nccc2c1[nH]c1ccccc12 [NBZ001] | – | > 30.00 µM | 24.2% | 31.3% | –
22 | CN(C)c1cccc(NC(=O)c2ccc3[nH]c4c(C(=O)c5ccccc5Br)nccc4c3c2)c1 [NBZ031] | – | > 30.00 µM | 6.47% | 72.7% | –
23 | O=C(c1ccccc1Br)c1nccc2c1[nH]c1ccccc12 [NBZ002] | – | > 30.00 µM | 27.2% | 42.2% | –
24 | O=C(O)c1ccc2[nH]c3c(C(=O)c4ccccc4Cl)nccc3c2c1 [NBZ009] | – | > 30.00 µM | 15% | 32.1% | –
25 | O=C(c1ccccc1Cl)c1nccc2c1[nH]c1ccc(C(=O)N3CCOCC3)cc12 [NBZ016] | – | > 30.00 µM | 10.5% | 37.4% | –
26 | Cc1ccc2[nH]c3c(C(=O)c4cccc(Br)c4)nccc3c2c1 [NBZ006] | – | > 30.00 µM | 13.1% | 33.3% | –
27 | CCCCNC(=O)c1ccc2[nH]c3c(C(=O)c4ccccc4Br)nccc3c2c1 [NBZ014] | – | > 30.00 µM | 19.7% | 2.09% | –
28 | COc1ccc(C(=O)c2nccc3c2[nH]c2ccc(C)cc23)cc1 [NBZ008] | – | > 30.00 µM | 13.1% | 17.3% | –
29 | NC(=O)c1ccc2[nH]c3c(C(=O)c4ccccc4Br)nccc3c2c1 [NBZ013] | – | > 30.00 µM | 11.2% | 34.5% | –
30 | COc1ccc(C(=O)c2nccc3c2[nH]c2ccc(C(=O)O)cc23)cc1 [NBZ012] | – | > 30.00 µM | 7.66% | 21.9% | –
31 | O=C(NC1CCCCC1)c1ccc2[nH]c3c(C(=O)c4ccccc4Br)nccc3c2c1 [NBZ015] | – | > 30.00 µM | 3.68% | 37.1% | –
32 | O=C(Nc1cccc2ccccc12)c1ccc2[nH]c3c4[n+](ccc3c2c1)-c1ccccc1C4=O [NBZ034] | – | – | 58.2% | – | –
33 | COc1ccc(NC(=O)c2ccc3[nH]c4c(C(=O)c5ccccc5Cl)nccc4c3c2)cc1 [NBZ028] | – | > 30.00 µM | 19.3% | – | –
34 | Cc1ccc2[nH]c3c(C(=O)c4ccccc4Br)nccc3c2c1 [NBZ005] | – | > 30.00 µM | 43.9% | 33.9% | –
35 | Cc1ccccc1NC(=O)c1ccc2[nH]c3c4[n+](ccc3c2c1)-c1ccccc1C4=O [NBZ036] | – | > 30.00 µM | 9.02% | 42.9% | –
